Where two headings read alike, the source gives them in different places.
What was measured:
Experiment in all cases: Protein phosphatase inhibition assay, FDP substrate, FMP fluorescence
Assay type in all cases: biochemical
Prl-3 = Prl-3 (Homo sapiens, UniProt O75365); settings: genetically recombinant enzyme, fluorescence of FMP
Description: For the experiments, FDP (fluorescein diphosphate) was used as a substrate for genetically recombinant enzymes to measure the fluorescence of FMP (fluorescein monophosphate).

VHR = VHR (Homo sapiens, UniProt P51452); settings: genetically recombinant enzyme, fluorescence of FMP
Protocol: (§1) In order to examine the ability of the rhodanine derivatives, that is, Compounds 1˜174, to inhibit protein phosphatases, they were assayed for IC50 values through the following experiments.
(§2) For the experiments, FDP (fluorescein diphosphate) was used as a substrate for genetically recombinant enzymes to measure the fluorescence of FMP (fluorescein monophosphate). […]

Cdc25C = molecular target: T1, Cdc25C (Homo sapiens, UniProt P30307); settings: genetically recombinant enzyme, fluorescence of FMP
T1 sequence (P30307 1-473): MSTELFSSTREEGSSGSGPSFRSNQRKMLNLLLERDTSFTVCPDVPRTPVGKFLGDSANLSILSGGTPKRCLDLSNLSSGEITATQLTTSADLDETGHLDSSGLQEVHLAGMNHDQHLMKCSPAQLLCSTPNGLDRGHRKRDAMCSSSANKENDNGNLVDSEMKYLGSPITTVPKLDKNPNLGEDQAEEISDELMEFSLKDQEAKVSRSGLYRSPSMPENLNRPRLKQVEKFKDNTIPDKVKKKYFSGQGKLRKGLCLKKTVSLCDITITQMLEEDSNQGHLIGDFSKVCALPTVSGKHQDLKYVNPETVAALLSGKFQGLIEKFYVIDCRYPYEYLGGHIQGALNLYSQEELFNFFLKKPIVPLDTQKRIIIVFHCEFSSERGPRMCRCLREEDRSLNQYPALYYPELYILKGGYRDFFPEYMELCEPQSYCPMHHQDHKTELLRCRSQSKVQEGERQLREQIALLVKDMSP
Protocol: as §1, §2

PTP1B = molecular target: T2, PTP1B (Homo sapiens, UniProt P18031)
T2 sequence (P18031 1-435): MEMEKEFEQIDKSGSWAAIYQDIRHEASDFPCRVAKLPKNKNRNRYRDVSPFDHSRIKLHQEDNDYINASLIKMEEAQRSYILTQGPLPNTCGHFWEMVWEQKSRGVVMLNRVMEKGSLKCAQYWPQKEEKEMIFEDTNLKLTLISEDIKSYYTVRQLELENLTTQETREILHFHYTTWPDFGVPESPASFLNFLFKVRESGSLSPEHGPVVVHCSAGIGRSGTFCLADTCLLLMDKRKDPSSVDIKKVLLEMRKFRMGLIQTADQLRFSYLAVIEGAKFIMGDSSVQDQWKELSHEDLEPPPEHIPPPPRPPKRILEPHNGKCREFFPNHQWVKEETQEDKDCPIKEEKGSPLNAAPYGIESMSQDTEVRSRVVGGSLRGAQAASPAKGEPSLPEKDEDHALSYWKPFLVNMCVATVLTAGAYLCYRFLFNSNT
Protocol: as §1, §2

LAR = LAR (Homo sapiens, UniProt P10586); settings: genetically recombinant enzyme, fluorescence of FMP
Protocol: as §1, §2

CD45 = molecular target: T3, CD45 (Homo sapiens, UniProt P08575); settings: genetically recombinant enzyme, fluorescence of FMP
T3 sequence (P08575 26-1306): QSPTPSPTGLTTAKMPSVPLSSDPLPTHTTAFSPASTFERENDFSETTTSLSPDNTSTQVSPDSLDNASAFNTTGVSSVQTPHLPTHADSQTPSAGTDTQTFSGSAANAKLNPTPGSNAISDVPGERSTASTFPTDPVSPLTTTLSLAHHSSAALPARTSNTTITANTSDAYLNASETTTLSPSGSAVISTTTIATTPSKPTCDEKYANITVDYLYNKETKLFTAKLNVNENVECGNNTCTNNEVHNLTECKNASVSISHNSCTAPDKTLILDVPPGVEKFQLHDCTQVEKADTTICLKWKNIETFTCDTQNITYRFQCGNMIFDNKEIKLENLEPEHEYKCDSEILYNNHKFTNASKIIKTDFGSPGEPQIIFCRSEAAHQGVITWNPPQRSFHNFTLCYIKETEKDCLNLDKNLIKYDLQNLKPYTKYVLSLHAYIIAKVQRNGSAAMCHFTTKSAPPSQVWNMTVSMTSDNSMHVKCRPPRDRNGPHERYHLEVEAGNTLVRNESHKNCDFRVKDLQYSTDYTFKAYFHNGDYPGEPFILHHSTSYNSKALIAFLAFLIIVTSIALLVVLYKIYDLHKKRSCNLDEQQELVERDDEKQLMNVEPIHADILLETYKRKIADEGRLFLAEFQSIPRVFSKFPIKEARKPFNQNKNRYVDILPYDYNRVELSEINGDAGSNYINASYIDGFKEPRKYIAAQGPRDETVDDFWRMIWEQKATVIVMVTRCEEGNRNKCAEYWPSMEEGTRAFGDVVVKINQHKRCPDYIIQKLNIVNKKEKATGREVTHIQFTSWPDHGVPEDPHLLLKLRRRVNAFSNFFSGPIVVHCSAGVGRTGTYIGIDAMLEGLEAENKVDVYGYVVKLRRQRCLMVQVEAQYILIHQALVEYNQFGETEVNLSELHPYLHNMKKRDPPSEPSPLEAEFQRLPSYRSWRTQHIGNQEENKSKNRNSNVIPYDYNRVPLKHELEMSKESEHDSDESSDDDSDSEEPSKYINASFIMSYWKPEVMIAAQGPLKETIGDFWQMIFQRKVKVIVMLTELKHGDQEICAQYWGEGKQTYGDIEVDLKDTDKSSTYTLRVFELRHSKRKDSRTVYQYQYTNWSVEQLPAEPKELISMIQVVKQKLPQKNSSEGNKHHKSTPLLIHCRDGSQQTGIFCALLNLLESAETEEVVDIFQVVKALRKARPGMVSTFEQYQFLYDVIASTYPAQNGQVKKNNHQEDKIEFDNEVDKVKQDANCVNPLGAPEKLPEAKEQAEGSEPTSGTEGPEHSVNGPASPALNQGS
Protocol: as §1, §2

PP1 = settings: genetically recombinant enzyme, fluorescence of FMP
Protocol: as §1, §2

Yop = Yop (Yersinia enterocolitica, UniProt P15273); settings: genetically recombinant enzyme, fluorescence of FMP
Protocol: as §1, §2

Cdc25B = molecular target: T4, Cdc25B (Homo sapiens, UniProt P30305); settings: genetically recombinant enzyme, fluorescence of FMP
T4 sequence (P30305 1-580): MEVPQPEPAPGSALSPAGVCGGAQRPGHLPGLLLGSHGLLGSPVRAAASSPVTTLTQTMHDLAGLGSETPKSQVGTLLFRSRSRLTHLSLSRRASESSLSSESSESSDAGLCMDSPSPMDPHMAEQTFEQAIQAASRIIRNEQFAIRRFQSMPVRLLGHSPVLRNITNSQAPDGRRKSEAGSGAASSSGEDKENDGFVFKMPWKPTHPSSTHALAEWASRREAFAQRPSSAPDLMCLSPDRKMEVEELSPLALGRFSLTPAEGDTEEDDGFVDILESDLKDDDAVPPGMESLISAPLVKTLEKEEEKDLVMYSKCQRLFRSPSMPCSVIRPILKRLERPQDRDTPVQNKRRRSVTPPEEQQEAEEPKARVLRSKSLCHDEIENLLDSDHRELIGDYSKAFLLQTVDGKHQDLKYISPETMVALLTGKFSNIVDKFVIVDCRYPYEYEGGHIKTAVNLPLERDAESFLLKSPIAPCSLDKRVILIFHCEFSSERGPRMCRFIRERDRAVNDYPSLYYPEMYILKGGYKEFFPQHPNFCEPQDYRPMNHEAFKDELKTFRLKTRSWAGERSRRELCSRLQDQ
Protocol: as §1, §2

Cdc25A = molecular target: T5, Cdc25A (Homo sapiens, UniProt P30304); settings: genetically recombinant enzyme, fluorescence of FMP
T5 sequence (P30304 1-524): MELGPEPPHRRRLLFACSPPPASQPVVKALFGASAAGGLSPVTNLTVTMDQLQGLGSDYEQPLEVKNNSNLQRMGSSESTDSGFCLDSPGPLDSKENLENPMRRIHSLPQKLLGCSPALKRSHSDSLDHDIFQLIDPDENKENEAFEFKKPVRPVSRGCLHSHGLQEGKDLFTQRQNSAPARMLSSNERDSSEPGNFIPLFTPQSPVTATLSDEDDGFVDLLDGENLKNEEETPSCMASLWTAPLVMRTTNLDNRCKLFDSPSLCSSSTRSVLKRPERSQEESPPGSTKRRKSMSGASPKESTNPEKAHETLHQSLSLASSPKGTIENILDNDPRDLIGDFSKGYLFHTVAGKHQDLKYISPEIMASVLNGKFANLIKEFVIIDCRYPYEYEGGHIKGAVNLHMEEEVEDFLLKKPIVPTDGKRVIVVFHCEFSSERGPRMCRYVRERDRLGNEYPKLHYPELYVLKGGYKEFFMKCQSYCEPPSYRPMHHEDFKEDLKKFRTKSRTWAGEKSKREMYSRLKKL
Protocol: as §1, §2

pp2A = settings: genetically recombinant enzyme, fluorescence of FMP
Protocol: as §1, §2

[1] = genetically recombinant enzyme, FDP substrate, fluorescence of FMP, read-out: IC50 PTP1B

Sequence of Prl-3 (O75365 whole entry): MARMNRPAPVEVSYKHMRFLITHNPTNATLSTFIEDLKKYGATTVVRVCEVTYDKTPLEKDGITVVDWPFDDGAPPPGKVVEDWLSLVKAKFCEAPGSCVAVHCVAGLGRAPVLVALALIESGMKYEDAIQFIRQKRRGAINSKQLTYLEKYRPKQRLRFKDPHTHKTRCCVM
Sequence of LAR (P10586 30-1907): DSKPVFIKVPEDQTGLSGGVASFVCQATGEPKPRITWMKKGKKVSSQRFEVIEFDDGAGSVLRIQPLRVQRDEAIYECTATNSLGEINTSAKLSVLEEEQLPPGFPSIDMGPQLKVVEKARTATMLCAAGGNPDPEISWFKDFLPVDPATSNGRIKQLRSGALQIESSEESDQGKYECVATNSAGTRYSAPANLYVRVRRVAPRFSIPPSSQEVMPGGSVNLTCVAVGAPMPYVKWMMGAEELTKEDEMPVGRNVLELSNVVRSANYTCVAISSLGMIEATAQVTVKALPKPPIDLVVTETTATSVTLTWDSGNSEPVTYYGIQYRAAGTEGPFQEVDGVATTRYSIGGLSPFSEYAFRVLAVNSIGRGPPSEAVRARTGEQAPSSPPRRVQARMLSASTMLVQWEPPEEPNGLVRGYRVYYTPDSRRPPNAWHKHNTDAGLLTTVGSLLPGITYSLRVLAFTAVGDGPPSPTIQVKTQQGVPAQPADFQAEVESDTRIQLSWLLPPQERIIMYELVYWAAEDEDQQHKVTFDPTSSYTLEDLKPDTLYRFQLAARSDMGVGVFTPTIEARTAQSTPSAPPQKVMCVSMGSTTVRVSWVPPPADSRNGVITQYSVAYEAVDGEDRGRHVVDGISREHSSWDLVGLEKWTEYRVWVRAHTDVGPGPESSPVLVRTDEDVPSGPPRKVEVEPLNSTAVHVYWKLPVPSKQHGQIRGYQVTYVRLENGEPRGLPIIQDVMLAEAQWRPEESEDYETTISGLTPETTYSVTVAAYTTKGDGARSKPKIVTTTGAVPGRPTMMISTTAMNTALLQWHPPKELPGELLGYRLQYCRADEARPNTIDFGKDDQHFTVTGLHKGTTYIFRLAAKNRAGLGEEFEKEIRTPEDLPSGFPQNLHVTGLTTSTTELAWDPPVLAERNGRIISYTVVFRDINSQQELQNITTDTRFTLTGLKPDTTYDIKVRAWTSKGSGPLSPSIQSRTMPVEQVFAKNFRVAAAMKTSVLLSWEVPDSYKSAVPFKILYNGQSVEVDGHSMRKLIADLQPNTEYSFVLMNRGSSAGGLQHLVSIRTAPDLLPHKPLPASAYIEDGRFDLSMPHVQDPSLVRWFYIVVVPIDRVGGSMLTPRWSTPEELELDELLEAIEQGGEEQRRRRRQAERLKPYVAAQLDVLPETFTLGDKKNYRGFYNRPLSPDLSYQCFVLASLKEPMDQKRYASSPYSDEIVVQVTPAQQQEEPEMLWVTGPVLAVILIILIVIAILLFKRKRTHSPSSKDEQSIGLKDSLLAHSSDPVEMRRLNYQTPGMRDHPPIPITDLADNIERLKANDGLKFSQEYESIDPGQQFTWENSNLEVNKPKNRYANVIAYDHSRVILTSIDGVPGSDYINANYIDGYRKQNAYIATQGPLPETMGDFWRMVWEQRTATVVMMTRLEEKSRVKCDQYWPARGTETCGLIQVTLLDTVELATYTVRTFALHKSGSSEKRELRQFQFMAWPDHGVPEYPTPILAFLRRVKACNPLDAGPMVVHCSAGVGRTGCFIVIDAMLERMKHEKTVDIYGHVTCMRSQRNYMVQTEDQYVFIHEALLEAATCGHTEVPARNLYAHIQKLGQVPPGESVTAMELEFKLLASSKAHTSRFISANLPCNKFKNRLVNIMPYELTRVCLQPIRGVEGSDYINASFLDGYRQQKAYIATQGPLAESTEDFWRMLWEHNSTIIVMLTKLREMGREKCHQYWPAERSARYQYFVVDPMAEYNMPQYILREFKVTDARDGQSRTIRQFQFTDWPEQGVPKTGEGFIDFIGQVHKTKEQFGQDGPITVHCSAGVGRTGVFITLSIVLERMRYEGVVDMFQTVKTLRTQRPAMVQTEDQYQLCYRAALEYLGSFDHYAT
Sequence of VHR (P51452 whole entry): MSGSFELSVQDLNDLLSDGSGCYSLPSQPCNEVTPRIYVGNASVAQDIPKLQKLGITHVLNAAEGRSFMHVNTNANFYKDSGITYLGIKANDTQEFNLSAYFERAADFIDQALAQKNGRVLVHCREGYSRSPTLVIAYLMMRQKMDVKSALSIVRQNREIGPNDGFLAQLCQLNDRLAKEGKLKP
Sequence of Yop (P15273 whole entry): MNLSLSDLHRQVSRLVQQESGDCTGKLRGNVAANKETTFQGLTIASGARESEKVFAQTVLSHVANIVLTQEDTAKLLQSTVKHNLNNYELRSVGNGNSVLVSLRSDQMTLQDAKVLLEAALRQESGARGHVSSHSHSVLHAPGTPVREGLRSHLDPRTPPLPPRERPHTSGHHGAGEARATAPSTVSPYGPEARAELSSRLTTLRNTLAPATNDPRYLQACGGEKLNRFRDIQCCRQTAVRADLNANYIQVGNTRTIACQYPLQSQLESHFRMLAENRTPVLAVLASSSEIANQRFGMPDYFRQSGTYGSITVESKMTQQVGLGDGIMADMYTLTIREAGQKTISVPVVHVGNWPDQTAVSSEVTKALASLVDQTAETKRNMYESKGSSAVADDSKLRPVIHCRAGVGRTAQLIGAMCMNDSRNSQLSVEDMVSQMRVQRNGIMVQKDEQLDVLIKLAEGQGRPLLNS

| Structure (SMILES) | IC50 (Prl-3) [µM] | IC50 (Cdc25C) [µM] | IC50 (PTP1B; [1]) [µM] | also measured |
| --- | --- | --- | --- | --- |
| CCN(CC)c1ccc(/C=C2\SC(=S)NC2=O)c(OCc2ccccc2)c1 [Compound 32, 5-(2-benzyloxy-4-diethylamino-benzylidene)-2-thioxo-thiazolidin-4-one] | 1.34 | > 20 | > 20 | IC50 (VHR): > 20 µM; IC50 (LAR): > 20 µM |
| O=C1NC(=S)S/C1=C\c1cc(Br)ccc1OCc1ccccc1 [Compound 1, 5-(2-benzyloxy-5-bromobenzylidene)-2-thioxo-thiazolidin-4-one] | – | – | – | IC50 (PTP1B): > 20 µM |
| CN(CCOc1ccc(Br)cc1/C=C1\SC(=S)NC1=O)C(=O)OC(C)(C)C [Compound 157, 2-[4-bromo-2-(4-oxo-2-thioxo-thiazolidin-5-ylidenemethyl)-phenoxy]-ethyl-methyl-carbamic acid t-butyl ester] | 6.2 | – | > 20 | IC50 (Yop): > 20 µM; IC50 (LAR): > 20 µM |
| O=C1NC(=S)S/C1=C\c1cc(Br)ccc1OCCN1c2ccccc2Cc2ccccc21 [Compound 142, 5-2-[2-(9H-acridin-10-yl)-ethoxy]-5-bromo-benzylidene-2-thioxo-thiazolidin-4-one] | 3.6 | > 20 | 13 | IC50 (Cdc25B): 4.4 µM |

The next lines start with results.

| IC50 (Prl-3) [µM] | IC50 (Cdc25C) [µM] | IC50 (PTP1B; [1]) [µM] | Structure (SMILES) | also measured |
| --- | --- | --- | --- | --- |
| – | > 20 | 5 | O=C1NC(=S)S/C1=C\c1cc(Br)ccc1OCc1cccc(C(F)(F)F)c1 [Compound 19, 5-[5-bromo-2-(3-trifluoromethyl-benzyloxy)-benzylidene]-2-thioxo-thiazolidin-4-one] | IC50 (VHR): > 20 µM; IC50 (CD45): > 20 µM |
| – | > 20 | > 20 | O=C1NC(=S)S/C1=C\c1cc2ccccc2cc1OCc1ccccc1 [Compound 2, 5-(3-benzyloxy-naphthalen-2-ylmethylene)-2-thioxo-thiazolidin-4-one] | IC50 (PP1): > 20 µM |
| – | – | 2.1 | O=C1NC(=S)S/C1=C\c1cc(Br)ccc1OCc1ccc(-c2ccccc2)cc1 [Compound 18, 5-[2-(biphenyl-ylmethoxy)-5-bromo-benzylidene]-2-thioxo-thiazolidin-4-one] | IC50 (CD45): > 20 µM |
| 1.6 | – | 47 | O=C1NC(=S)S/C1=C\c1cc(Br)ccc1OCCn1c2ccccc2c2ccccc21 [Compound 141, 5-[5-bromo-2-(2-carbazol-9-yl-ethoxy)-benzylidene]-2-thioxo-thiazolidin-4-one] | IC50 (Cdc25B): 2.7 µM; IC50 (Cdc25A): > 20 µM |
| – | – | 10 | O=C1NC(=S)S/C1=C\c1cc(Br)ccc1OCCc1ccccc1 [Compound 4, 5-(5-bromo-2-phenethyloxy-benzylidene)-2-thioxo-thiazolidin-4-one] | IC50 (PP1): > 20 µM; IC50 (pp2A): > 20 µM |

— patent US8148541B2, “Rhodanine derivatives, a process for the preparation thereof and pharmaceutical composition containing the same” (Korea Research Institute of Bioscience and Biotechnology, priority 2006, dated 2012)
